# Data from ChEMBL document CHEMBL5696441 (Nat Chem Biol, 2011).
# Tests used:
# [1] = molecular target: Insulin receptor-related protein (Homo sapiens) (UniProt P14616); assay: Inhibition of human INSRR assessed as residual activity at 1 uM using poly(Ala,Glu,Lys,Tyr)6:2:5:1 as substrate in presence of 33P-ATP by ProQinase assay relative to control
# [2] = molecular target: Macrophage-stimulating protein receptor (Homo sapiens) (UniProt Q04912); assay: Inhibition of human RON assessed as residual activity at 1 uM using polyEY as substrate in presence of 33P-ATP by ProQinase assay relative to control
# [3] = molecular target: T1, Ephrin type-A receptor 1 (Homo sapiens) (UniProt P21709); assay: Inhibition of human EPHA1 assessed as residual activity at 1 uM using polyEY as substrate in presence of 33P-ATP by ProQinase assay relative to control
# T1 sequence (whole entry): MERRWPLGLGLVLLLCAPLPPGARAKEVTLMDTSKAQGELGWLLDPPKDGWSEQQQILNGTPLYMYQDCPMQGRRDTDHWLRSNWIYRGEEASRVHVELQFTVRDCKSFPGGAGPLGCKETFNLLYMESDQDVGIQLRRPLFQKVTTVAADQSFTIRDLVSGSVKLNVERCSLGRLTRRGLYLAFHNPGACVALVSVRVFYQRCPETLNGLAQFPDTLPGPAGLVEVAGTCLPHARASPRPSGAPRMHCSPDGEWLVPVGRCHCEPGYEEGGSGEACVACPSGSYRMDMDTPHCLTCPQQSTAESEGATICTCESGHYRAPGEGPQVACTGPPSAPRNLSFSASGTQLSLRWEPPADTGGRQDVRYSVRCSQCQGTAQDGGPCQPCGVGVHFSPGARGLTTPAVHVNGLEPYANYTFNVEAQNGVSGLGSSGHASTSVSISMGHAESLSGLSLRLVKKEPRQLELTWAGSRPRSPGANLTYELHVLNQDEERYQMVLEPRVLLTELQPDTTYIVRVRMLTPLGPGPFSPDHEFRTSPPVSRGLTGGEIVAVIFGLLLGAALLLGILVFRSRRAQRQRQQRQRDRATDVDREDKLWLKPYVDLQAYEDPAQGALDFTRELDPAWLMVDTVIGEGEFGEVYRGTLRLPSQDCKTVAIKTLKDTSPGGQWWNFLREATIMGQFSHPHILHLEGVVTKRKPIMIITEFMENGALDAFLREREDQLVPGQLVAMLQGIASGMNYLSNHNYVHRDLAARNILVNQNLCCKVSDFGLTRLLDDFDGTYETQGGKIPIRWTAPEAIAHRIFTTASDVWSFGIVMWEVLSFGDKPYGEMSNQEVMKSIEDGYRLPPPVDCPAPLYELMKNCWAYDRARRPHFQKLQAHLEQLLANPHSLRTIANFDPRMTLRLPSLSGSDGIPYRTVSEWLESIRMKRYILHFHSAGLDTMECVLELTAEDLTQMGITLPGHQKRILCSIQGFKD
# [4] = molecular target: Serine/threonine-protein kinase TNNI3K (Homo sapiens) (UniProt Q59H18); assay: Inhibition of TNNI3K (unknown origin) assessed as remaining activity at 1 uM by Kinome scan method relative to control
# Serine/threonine-protein kinase TNNI3K (Homo sapiens), sequence (Q59H18 whole entry): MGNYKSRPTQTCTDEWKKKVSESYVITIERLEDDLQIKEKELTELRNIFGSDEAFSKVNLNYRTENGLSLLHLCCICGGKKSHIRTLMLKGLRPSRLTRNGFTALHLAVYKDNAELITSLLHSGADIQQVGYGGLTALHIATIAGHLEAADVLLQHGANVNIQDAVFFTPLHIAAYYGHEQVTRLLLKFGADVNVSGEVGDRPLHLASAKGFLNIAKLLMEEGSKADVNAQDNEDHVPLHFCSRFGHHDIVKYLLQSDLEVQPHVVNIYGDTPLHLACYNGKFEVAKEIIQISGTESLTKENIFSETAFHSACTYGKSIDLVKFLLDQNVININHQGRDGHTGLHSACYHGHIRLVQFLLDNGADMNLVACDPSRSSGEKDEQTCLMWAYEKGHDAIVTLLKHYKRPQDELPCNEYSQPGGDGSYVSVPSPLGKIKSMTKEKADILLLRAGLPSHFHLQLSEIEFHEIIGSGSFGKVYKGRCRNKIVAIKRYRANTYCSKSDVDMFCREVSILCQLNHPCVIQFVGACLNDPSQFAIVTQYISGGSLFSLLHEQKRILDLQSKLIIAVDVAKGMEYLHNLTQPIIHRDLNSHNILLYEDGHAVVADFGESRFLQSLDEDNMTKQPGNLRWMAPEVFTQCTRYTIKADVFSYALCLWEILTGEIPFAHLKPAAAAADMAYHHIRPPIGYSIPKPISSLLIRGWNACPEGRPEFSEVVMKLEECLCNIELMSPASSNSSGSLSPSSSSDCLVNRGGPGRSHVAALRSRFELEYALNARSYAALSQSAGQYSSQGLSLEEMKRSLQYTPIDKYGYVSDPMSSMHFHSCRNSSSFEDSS
# [5] = molecular target: CYP2D6 (Homo sapiens, UniProt P10635); assay: Inhibition of CYP2D6 (unknown origin) at 10 uM relative to control; format: ADME
# CYP2D6, sequence (P10635 whole entry): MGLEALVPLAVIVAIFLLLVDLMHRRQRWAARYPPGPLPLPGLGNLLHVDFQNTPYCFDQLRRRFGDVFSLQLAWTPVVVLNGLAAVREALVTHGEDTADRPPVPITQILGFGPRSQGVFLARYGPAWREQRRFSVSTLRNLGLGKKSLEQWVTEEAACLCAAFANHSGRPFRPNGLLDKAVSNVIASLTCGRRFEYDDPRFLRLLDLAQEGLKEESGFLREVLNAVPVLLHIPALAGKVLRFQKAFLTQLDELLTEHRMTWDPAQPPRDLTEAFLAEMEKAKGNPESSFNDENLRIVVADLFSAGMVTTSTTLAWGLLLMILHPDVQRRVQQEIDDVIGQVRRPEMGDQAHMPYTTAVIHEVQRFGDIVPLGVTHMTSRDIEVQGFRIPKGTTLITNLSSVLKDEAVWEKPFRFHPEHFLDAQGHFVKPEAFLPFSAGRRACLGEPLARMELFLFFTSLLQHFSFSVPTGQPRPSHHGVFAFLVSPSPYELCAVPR
# [6] = test system: Epidermal growth factor receptor (Homo sapiens), P00533 [UNDEFINED MUTATION]; assay: Inhibition of EGFR L747-E749del/A750P mutant (unknown origin) assessed as remaining activity at 1 uM by Kinome scan method relative to control
# [7] = test system: Tyrosine-protein kinase ABL1 (Homo sapiens), P00519 [Q252H]; assay: Inhibition of human ABL1 Q252H mutant assessed as residual activity at 1 uM using Poly(Ala,Glu,Lys,Tyr)6:2:5:1 as substrate in presence of 33P-ATP by ProQinase assay relative to control
# [8] = molecular target: Cyclin-dependent kinase 15 (Homo sapiens) (UniProt Q96Q40); assay: Inhibition of PFTAIRE2 (unknown origin) assessed as remaining activity at 1 uM by Kinome scan method relative to control
# Cyclin-dependent kinase 15 (Homo sapiens), sequence (Q96Q40 whole entry): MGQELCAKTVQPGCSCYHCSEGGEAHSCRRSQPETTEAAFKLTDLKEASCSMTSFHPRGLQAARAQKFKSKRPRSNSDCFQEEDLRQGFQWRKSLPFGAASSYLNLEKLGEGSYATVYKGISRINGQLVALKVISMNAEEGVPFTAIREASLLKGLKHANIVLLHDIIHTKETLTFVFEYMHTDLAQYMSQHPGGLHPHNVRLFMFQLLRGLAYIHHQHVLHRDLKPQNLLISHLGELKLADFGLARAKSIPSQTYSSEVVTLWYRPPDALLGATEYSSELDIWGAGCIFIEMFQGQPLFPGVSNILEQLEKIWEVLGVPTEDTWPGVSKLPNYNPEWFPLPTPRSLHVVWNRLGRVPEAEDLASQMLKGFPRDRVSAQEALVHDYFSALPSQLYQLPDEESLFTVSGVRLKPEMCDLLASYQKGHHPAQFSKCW
# [9] = test system: Epidermal growth factor receptor (Homo sapiens), P00533 [L861Q]; assay: Inhibition of human EGFR L861Q mutant assessed as residual activity at 1 uM using PolyEY as substrate in presence of 33P-ATP by ProQinase assay relative to control
# [10] = molecular target: Mitogen-activated protein kinase kinase kinase 7 (Homo sapiens) (UniProt O43318); assay: Inhibition of TAK1 (unknown origin) assessed as remaining activity at 1 uM by Kinome scan method relative to control
# [11] = test system: Mast/stem cell growth factor receptor Kit (Homo sapiens), P10721 [T670I]; assay: Inhibition of human KIT T670I mutant assessed as residual activity at 1 uM using polyEY as substrate in presence of 33P-ATP by ProQinase assay relative to control
# Mast/stem cell growth factor receptor Kit (Homo sapiens), P10721 [T670I], sequence (P10721 whole entry T670I): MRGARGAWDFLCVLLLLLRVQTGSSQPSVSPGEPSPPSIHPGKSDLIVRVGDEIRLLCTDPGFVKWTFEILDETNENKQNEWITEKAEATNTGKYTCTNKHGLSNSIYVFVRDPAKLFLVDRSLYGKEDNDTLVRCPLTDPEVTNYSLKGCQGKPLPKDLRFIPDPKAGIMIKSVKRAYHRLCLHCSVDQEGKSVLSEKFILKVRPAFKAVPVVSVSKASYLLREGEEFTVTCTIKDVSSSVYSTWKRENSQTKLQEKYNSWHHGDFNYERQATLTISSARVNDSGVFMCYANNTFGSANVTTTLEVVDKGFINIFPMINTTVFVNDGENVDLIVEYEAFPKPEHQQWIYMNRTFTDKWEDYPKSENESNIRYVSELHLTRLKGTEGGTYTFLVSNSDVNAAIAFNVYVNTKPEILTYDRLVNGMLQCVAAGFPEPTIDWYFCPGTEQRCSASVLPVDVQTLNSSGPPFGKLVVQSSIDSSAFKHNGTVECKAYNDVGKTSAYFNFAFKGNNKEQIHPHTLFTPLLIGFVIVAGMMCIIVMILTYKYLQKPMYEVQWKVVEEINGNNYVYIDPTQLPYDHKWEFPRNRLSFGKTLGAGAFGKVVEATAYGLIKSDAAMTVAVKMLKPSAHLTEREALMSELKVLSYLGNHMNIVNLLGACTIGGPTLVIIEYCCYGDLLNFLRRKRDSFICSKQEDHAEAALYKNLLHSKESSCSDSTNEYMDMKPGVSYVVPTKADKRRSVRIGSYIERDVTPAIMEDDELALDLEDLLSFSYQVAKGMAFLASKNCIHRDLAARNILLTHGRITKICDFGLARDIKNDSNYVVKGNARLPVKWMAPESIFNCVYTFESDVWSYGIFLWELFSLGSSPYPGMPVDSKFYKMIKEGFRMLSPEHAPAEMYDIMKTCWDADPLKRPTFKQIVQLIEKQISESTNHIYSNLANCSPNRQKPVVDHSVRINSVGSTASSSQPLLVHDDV
# [12] = molecular target: Epidermal growth factor receptor (Homo sapiens) (UniProt P00533); assay: Inhibition of EGFR (unknown origin) assessed as remaining activity at 1 uM by Kinome scan method relative to control
# [13] = molecular target: Dual serine/threonine and tyrosine protein kinase (Homo sapiens) (UniProt Q6XUX3); assay: Inhibition of human RIPK5 assessed as residual activity at 1 uM using RBER-CHKtide as substrate in presence of 33P-ATP by ProQinase assay relative to control
# Dual serine/threonine and tyrosine protein kinase (Homo sapiens), sequence (Q6XUX3 whole entry): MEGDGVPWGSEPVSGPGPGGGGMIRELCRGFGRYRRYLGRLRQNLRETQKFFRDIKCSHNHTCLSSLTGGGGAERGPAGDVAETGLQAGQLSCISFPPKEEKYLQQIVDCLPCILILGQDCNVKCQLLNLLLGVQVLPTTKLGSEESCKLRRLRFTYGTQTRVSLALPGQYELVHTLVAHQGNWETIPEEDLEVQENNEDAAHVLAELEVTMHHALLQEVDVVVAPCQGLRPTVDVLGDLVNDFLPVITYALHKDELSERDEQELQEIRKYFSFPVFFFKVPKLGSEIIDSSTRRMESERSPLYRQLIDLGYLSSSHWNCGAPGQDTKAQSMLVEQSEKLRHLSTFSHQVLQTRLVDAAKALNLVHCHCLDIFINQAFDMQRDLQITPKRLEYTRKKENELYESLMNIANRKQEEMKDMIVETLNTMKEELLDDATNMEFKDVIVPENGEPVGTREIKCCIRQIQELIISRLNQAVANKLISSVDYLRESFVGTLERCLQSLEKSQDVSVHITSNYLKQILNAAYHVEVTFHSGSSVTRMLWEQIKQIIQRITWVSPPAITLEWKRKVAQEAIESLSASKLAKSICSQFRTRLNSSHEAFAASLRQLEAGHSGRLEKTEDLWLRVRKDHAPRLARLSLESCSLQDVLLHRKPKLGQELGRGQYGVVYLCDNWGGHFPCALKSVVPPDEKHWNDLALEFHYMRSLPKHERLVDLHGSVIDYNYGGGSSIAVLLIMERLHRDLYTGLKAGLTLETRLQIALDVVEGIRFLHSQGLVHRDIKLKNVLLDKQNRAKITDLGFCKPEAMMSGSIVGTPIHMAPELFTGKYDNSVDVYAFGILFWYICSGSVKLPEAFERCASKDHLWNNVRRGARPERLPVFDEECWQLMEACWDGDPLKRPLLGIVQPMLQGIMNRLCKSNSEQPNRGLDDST
# [14] = molecular target: Receptor-interacting serine/threonine-protein kinase 2 (Homo sapiens) (UniProt O43353); assay: Inhibition of RIPK2 (unknown origin) assessed as remaining activity at 1 uM by Kinome scan method relative to control
# [15] = molecular target: G protein-coupled receptor kinase 6 (Homo sapiens) (UniProt P43250); assay: Inhibition of human GRK6 assessed as residual activity at 1 uM using casein as substrate in presence of 33P-ATP by ProQinase assay relative to control
# G protein-coupled receptor kinase 6 (Homo sapiens), sequence (P43250 whole entry, looked up): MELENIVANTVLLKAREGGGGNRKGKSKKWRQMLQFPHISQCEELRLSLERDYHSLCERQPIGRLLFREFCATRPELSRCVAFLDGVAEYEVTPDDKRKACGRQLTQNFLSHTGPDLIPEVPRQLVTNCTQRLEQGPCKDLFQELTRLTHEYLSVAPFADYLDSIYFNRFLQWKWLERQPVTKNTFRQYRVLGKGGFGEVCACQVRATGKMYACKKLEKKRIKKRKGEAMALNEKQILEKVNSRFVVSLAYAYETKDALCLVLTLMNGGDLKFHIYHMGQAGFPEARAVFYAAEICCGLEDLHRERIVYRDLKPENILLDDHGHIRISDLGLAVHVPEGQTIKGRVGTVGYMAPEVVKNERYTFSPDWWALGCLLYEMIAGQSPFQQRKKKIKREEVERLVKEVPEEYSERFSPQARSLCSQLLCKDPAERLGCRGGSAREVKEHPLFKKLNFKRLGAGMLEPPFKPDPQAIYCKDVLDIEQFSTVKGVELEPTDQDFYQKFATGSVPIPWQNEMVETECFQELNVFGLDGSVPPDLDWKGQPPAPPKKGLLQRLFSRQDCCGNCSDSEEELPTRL
# [16] = molecular target: Protein kinase C delta type (Homo sapiens) (UniProt Q05655); assay: Inhibition of PRKCD (unknown origin) assessed as remaining activity at 1 uM by Kinome scan method relative to control
# [17] = test system: Epidermal growth factor receptor (Homo sapiens), P00533 [L858R]; assay: Inhibition of human EGFR L858R mutant assessed as residual activity at 1 uM using PolyEY as substrate in presence of 33P-ATP by ProQinase assay relative to control
# [18] = molecular target: Serine/threonine-protein kinase RIO3 (Homo sapiens) (UniProt O14730); assay: Inhibition of RIOK3 (unknown origin) assessed as remaining activity at 1 uM by Kinome scan method relative to control
# [19] = molecular target: Serine/threonine-protein kinase tousled-like 1 (Homo sapiens) (UniProt Q9UKI8); assay: Inhibition of TLK1 (unknown origin) assessed as remaining activity at 1 uM by Kinome scan method relative to control
# Serine/threonine-protein kinase tousled-like 1 (Homo sapiens), sequence (Q9UKI8 whole entry): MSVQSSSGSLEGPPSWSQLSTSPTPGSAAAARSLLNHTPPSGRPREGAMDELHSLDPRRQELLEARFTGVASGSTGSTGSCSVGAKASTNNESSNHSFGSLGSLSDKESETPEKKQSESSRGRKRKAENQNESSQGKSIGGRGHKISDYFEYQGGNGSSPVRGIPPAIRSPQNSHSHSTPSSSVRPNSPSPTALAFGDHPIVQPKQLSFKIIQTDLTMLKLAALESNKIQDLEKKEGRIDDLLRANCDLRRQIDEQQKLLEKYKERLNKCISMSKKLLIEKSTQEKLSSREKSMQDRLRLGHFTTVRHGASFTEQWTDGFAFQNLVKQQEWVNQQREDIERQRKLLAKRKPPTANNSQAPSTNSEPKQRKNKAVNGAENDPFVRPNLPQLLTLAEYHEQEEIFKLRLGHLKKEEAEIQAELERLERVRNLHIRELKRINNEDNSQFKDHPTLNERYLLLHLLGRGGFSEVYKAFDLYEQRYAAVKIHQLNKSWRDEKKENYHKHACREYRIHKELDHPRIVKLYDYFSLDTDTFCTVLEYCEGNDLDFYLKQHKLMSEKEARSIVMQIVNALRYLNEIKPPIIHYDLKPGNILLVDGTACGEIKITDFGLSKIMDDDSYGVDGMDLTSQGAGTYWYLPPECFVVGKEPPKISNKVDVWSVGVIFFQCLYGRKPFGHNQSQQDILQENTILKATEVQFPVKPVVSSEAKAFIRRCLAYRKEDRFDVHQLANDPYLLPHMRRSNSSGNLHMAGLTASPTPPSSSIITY
compound,measurement,setting,value
O=C1c2ccc(Nc3ccc(F)cc3F)cc2CCc2ccc(OC[C@H](O)CO)cc21 [Skepinone-L],Activity,[1],98%
same,Activity,[2],56%
same,Activity,[3],115%
same,Activity,[4],90%
same,inhibition at 10 µM,[5],-21%
same,Activity,[6],82%
same,Activity,[7],95%
same,Activity,[8],85%
same,Activity,[9],94%
same,Activity,[10],100%
same,Activity,[11],145%
same,Activity,[12],98%
same,Activity,[13],95%
same,Activity,[14],87%
same,Activity,[15],82%
same,Activity,[16],94%
same,Activity,[17],89%
same,Activity,[18],99%
same,Activity,[19],100%
